Data as given in US10716869B2, “Radiolabeled macrocyclic EGFR inhibitor” (Oncodesign SA, priority 2016, dated 2020).

Assays:
[1] = biodistribution by ex vivo γ-counting in Sprague Dawley rats
Protocol: To evaluate the biodistribution of the pure S (II) and R (III) enantiomers compared to compound (I), dynamic PET scan imaging and ex vivo gamma counting were performed on Sprague Dawley rats. Animals were injected with the radiotracer solution diluted in NaCl 0.9% to prepare a solution of activity 4-6 MBq (gamma-counting experiments) or 11-13 MBq (PET imaging experiments) in a volume of 300-400 or 600-800 μL, respectively. Radioactivity content in all biological samples was determined with scintillation γ-counter (Cobra 4180, Perkin-Elmer Inc.).
At the light of the biodistribution data of compound (I), the biodistribution of the R (III)- and S (II)-enantiomers was assessed by γ-counting in the organs in which the accumulation of compound (I) was prominent (that is: blood, heart, kidneys, liver, stomach, small intestine and colon). Two timepoints were selected: 5 and 30 minutes post-injection. […] The higher uptakes of R enantiomer (III) and S enantiomer (II) in these organs were expected to be observed at early timepoints after injection, giving the highest signals in the γ-counter and therefore making the comparison of biodistribution data more relevant. Besides, as PET images were acquired with compound (I), PET imaging was included in the evaluation of the biodistribution of R enantiomer and S enantiomer. This gave the opportunity to had one additional timepoint at 4 hours post-injection for collection of major organs and determination of radioactivity content by ex vivo γ-counting.

[2] = system: human lung tumors (wild type EGFR, L858R mutated or exon 19 deleted EGFR); experiment: autoradiography on human frozen tumor sections; conditions: ATP at 10 mM
Excerpt: Three types of human lung tumors were included: tumors harboring wild type EGFR and tumors carrying L858R mutated or exon 19 deleted EGFR genes.

[3] = radiochemical stability in vehicle by HPLC; format: physicochemical; conditions: conditions of formulation, storage at room temperature
Protocol: By this method, the final radiolabeled compound can be obtained with a radiochemical purity greater than 98% in 100-110 min with a yield that can reach 25% (decay corrected). It has been noticed that an uncompleted evaporation of the solvents used for the purification of [^18F]Fluoroethyltosylate hampers the second step and conducts to lower yields. Specific activity of productions was in the range of […]. The radiolabeled compound is stable in the conditions of formulation as radiochemical purity still greater than 95% 20 h after production with a storage at room temperature.
(§1) After radiosynthesis, the stability of the radiotracer was evaluated by HPLC both in its vehicle and in rat plasma. Compound (I) was formulated in physiologic serum/ethanol with the respective proportion 87.5/12.5 (v/v). A mixture of compounds (I) (i.e. radiolabelled) and (Ia) (i.e. cold analogue) was stable for up to 20 hours at room temperature in its vehicle, only one peak being detected at the expected retention time. In rat plasma two peaks were detected: one at 3.15 minutes and one at 8.02 minutes (corresponding to a mixture of compounds (I) and (Ia)) after an incubation at +37° C. for 4 hours.

[4] = plasma stability by HPLC; format: in vitro ADME, rat; conditions: checked up to 4 h
Protocol: as §1

| uptake in liver ([1]; 5 minutes post injection) | uptake in small intestine ([1]; 5 minutes post injection) | uptake in blood ([1]; 5 minutes post-injection) | uptake in heart ([1]; 5 minutes post-injection) | uptake in kidneys ([1]; 5 minutes post-injection) | uptake in stomach ([1]; 5 minutes post-injection) | uptake in liver ([1]; 30 minutes post injection) | uptake in heart ([1]; 30 minutes post-injection) | uptake in kidneys ([1]; 30 minutes timepoint) | uptake in stomach ([1]; 30 minutes timepoint) | uptake in stomach ([1]; four hours post-injection) | uptake in small intestine ([1]; thirty minutes post-injection) | radiochemical purity 20 h after production [3] | Plasmatic stability [4] | Compound | competition with the binding of Compound (I) on frozen tumor sections [2] |
| --- | --- | --- | --- | --- | --- | --- | --- | --- | --- | --- | --- | --- | --- | --- | --- |
| 0.02±0.09 % ID/g | 0.35±0.19 % ID/g | 0.20±0.002 % ID/g | 0.99±0.02 % ID/g | 4.15±0.79 % ID/g | 1.86±0.73 % ID/g | 0.71±0.07 % ID/g | 0.10±0.02 % ID/g | 0.25±0.08 % ID/g | 0.26±0.07 % ID/g | 2.58±2.52 % ID/g | 0.02±0.004 % ID/g |  |  | CC(C)[C@H]1NC(=O)Cc2ccc(Cl)cc2Nc2ncnc3cc(OCC[18F])c(cc23)OCCCNC1=O [(III)] |  |
|  |  |  |  |  |  |  |  |  |  |  |  |  |  | Nc1ncnc2c1ncn2[C@@H]1O[C@H](COP(=O)(O)OP(=O)(O)OP(=O)(O)O)[C@@H](O)[C@H]1O [ATP, reference compound] | totally abolished the binding of Compound (I) |
| 0.97±0.92 % ID/g | 0.08±0.09 % ID/g | 0.11±0.01 % ID/g | 1.35±0.35 % ID/g | 6.89±0.52 % ID/g | 0.72±0.38 % ID/g | 0.15±0.03 % ID/g | 0.19±0.08 % ID/g | 1.04±0.17 % ID/g | 0.20±0.05 % ID/g | 2.39±2.31 % ID/g | 0.08±0.07 % ID/g | greater than 95% | without significant degradation | CC(C)[C@@H]1NC(=O)Cc2ccc(Cl)cc2Nc2ncnc3cc(OCC[18F])c(cc23)OCCCNC1=O [Compound (II)] |  |
